In PMC9103758 (International Journal of Molecular Sciences, 2022):
pIC50: −log10 of the molar value. “And” between values parts separate entries of the source, which are not always exact repeats. Identical values can stand only once.

Assays:
[1] = molecular target: T1, human CFTR (Homo sapiens, UniProt P13569); experiment: Apical membrane current of CFTR in FRT cells expressing human CFTR; format: cell-based; details: apical membrane current, FRT cells expressing human CFTR, 20 μM forskolin, n = 5; read-out: CFTR chloride channel IC50
T1 construct: expressed in transfected cells; host or cells: Fisher rat thyroid (FRT) cells
Source text: […]. (C) Summary of dose-response (mean ± S.E., n = 5). […]. (F) Summary of dose−response (mean ± S.E., n = 6).
Snapwell inserts containing ANO1(abc) or CFTR-expressing FRT cells were mounted in Ussing chambers (Physiological Instruments, San Diego, CA). The basolateral hemichamber was filled with buffer solution (in mM): 120 NaCl, 5 KCl, 1 MgCl2, 1 CaCl2, 10 D-glucose, 2.5 HEPES, and 25 NaHCO3 (pH 7.4). The apical hemichamber was filled with buffer solution (in mM): 60 NaCl, 60 Na-gluconate, 5 KCl, 1 MgCl2, 1 CaCl2, 10 D-glucose, 2.5 HEPES, and 25 NaHCO3 (pH 7.4). FRT cells were bathed for a 10 min stabilization period and gassed with 5% CO2 and 95% O2 at 37 °C. The apical membrane current was recorded with an EVC4000 Multi-Channel V/I Clamp (World Precision Instruments, Sarasota, FL, USA) and a PowerLab 4/35 (AD Instruments, Castle Hill, Australia).

[2] = molecular target: T2, VRAC-mediated chloride current (ICl, swell) in HEK293T cells (Homo sapiens, UniProt Q8IWT6); experiment: Whole-cell voltage-clamp of ICl,swell in HEK293T cells; format: cell-based; details: dose-dependent
T2 construct: endogenous in cells; host or cells: HEK293T
T2 sequence (Q8IWT6 1-810): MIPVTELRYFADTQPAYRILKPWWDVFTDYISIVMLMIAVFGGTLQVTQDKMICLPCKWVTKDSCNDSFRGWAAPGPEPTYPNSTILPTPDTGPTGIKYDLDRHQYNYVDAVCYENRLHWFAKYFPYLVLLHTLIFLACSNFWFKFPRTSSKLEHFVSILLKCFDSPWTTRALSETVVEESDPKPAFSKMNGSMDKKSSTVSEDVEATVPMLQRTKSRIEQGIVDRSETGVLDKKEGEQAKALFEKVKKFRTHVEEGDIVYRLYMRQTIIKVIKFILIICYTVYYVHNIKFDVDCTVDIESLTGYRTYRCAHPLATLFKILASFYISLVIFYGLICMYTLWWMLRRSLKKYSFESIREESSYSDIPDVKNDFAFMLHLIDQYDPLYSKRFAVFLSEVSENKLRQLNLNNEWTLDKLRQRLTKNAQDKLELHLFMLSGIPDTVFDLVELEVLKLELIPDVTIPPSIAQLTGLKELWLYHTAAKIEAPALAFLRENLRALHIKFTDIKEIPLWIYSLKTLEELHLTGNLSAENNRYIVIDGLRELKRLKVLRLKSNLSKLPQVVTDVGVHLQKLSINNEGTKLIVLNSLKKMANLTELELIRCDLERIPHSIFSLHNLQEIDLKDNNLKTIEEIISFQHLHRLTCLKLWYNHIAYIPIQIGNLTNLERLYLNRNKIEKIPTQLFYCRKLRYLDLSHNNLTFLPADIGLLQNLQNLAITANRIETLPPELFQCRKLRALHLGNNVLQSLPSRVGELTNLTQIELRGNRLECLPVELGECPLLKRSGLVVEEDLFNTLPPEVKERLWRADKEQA
Experimental: (§1) (A) Whole-cell membrane currents were recorded at a holding potential of −50 mV by voltage steps ranging from −120 to 120 mV (in steps of 20 mV) in HEK293T cells. […] (C) Whole-cell VRAC currents were recorded at a holding potential of −50 mV by voltage steps ranging from −100 to 100 mV (in steps of 20 mV) in LN215 cells.
(§2) For volume-regulated anion channel (VRAC) currents measurement, the isotonic bath solution contained (in mM): 150 NaCl, 6 KCL, 1.5 CaCl2, 1 MgCl2, 10 glucose, 1 HEPES, and pH 7.4 with NaOH (320 mOsm). […] The pipette solution contained (in mM): 40 CsCl, 100 Cs-methanesulfonate, 0.5 EGTA, 1 MgCl2, 1.9 CaCl2, 5 EGTA, 4 Tris−ATP, 10 HEPES, and pH 7.2 with CsOH (290 mOsm). Pipettes were pulled from borosilicate glass and had resistances of 3–5 MΩ after fire polishing. Seal resistances were between 3 and 10 GΩ. The liquid junction potential (~2.4 mV) was not corrected. After establishing the whole-cell configuration, whole-cell capacitance and series resistance were compensated with the amplifier circuitry. VRAC was activated by exposing LN215 cells to a 25% hypotonic bath solution. Whole-cell currents were elicited by applying hyperpolarizing and depolarizing voltage pulses from a holding potential of 0 mV to potentials between −100 mV and +100 mV or −120 mV and +120 mV in steps of 20 mV. Recordings were made at room temperature. […]

[3] = molecular target: T3, hERG K+ channel (Homo sapiens, UniProt Q12809); experiment: FluxOR thallium flux assay in HEK293T cells expressing hERG; format: cell-based
T3 construct: expressed in transfected cells; called HEK293
Experimental: (C) Summary of dose-response (mean ± S.E., n = 5). […] (F) Summary of dose−response (mean ± S.E., n = 6).
HEK293 cells stably expressing human Kv11.1 (hERG) were cultured in 96-well plates. After 48 h, the cells were incubated at 28 °C for 4 h to increase the membrane expression of hERG. The culture medium was replaced with a 80 μL/well of FluxOR (Invitrogen, Waltham, MA, USA) loading buffer and incubated for 1 h at 37 °C in the dark. After removing the loading buffer, 100 μL of assay buffer was added to each well. […] FluxOR fluorescence (excitation/emission: 490/525 nm) was recorded for 4 s before the addition of 20 μL of stimulus buffer containing thallium ions, and the fluorescence was recorded. FluxOR fluorescence was recorded and analyzed using the FLUOstar Omega microplate reader (BMG Labtech, Ortenberg, Germany) and the MARS Data Analysis Software (BMG Labtech, Ortenberg, Germany). All buffers were prepared according to the manufacturer’s instructions.

[4] = molecular target: T4, VRAC-mediated chloride current (ICl, swell) in LN215 cells (Homo sapiens, UniProt Q8IWT6); experiment: Whole-cell voltage-clamp of ICl,swell in LN215 cells; format: cell-based; details: dose-dependent
T4 construct: endogenous in cells; host or cells: LN215 human glioma cells stably expressing the halide sensor YFP-F46L/H148Q/I152L
T4 sequence (Q8IWT6 1-810): T2 sequence (Q8IWT6 1-810)
Experimental: as §1, §2

[5] = molecular target: T5, VRAC (Homo sapiens, UniProt Q8IWT6)
T5 sequence (Q8IWT6 1-810): T2 sequence (Q8IWT6 1-810)

[6] = molecular target: T5, VRAC; experiment: cell-based; details: LN215 cells
[7] = tested on: NIH-3T3 cells; experiment: Cell viability (MTS/MTT) in NIH-3T3 cells; format: cell-based; details: 24 h, up to/at 30 μM
Experimental: […]. (A) Structure of VI-116. (B) Representative YFP fluorescence traces. The inhibitory effects of VI-116 on VRAC activity were determined using YFP fluorescence assay in LN215 cells. VRAC was activated by application of […] solution for 5 min. (C) Summary of VRAC dose-response (mean ± S.E., n = 4). (D) Summary of VRAC dose−response with 10% FBS (mean ± S.E., n = 4). […].
NIH-3T3 cells were plated on 96-well microplates. After 24 h incubation, cells were treated with VI-116 or DCPIB and incubated for 24 h. The culture medium and the compounds were changed every 12 h. To assess cell proliferation, the cells were incubated with MTS for 1 h. The soluble formazan produced by the cellular reduction of MTS was quantified by measuring the absorbance at 490 nm with an Infinite M200 (Tecan, Grödig, Austria) microplate reader. MTS assay was performed using a CellTiter 96 Aqueous One Solution Cell Proliferation Assay kit (Promega, Madison, WI, USA).

T3 sequence (Q12809 whole entry): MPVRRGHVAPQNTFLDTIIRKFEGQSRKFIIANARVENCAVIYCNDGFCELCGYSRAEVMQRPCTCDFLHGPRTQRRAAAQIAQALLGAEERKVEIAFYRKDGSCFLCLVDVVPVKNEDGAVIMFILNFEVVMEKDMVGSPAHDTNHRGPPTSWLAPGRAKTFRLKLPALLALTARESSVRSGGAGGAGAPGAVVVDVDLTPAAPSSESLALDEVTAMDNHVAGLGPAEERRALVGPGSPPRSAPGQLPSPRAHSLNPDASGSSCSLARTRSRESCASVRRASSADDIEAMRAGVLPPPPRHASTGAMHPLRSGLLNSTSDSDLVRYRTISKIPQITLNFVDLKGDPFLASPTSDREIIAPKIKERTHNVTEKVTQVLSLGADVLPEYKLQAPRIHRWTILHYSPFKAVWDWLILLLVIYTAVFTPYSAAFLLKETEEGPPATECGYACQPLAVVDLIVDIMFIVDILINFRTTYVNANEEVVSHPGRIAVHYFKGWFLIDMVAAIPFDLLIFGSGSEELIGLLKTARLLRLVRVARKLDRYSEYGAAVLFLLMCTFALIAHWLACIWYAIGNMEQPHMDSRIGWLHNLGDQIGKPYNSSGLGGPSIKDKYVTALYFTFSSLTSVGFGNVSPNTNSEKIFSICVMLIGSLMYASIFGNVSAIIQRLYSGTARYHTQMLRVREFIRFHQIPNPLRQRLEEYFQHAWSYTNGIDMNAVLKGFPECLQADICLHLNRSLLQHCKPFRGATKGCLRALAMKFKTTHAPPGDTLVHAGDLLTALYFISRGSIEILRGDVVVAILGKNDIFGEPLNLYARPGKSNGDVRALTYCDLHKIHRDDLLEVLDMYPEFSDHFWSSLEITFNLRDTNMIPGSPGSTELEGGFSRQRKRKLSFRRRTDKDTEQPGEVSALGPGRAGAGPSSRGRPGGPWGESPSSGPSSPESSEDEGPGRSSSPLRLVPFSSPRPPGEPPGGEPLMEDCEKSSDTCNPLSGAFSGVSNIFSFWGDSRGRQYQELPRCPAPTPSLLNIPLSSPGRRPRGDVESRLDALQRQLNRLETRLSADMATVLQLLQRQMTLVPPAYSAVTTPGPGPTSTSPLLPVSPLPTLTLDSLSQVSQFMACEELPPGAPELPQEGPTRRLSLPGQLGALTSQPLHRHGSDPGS
T1 sequence (P13569 whole entry): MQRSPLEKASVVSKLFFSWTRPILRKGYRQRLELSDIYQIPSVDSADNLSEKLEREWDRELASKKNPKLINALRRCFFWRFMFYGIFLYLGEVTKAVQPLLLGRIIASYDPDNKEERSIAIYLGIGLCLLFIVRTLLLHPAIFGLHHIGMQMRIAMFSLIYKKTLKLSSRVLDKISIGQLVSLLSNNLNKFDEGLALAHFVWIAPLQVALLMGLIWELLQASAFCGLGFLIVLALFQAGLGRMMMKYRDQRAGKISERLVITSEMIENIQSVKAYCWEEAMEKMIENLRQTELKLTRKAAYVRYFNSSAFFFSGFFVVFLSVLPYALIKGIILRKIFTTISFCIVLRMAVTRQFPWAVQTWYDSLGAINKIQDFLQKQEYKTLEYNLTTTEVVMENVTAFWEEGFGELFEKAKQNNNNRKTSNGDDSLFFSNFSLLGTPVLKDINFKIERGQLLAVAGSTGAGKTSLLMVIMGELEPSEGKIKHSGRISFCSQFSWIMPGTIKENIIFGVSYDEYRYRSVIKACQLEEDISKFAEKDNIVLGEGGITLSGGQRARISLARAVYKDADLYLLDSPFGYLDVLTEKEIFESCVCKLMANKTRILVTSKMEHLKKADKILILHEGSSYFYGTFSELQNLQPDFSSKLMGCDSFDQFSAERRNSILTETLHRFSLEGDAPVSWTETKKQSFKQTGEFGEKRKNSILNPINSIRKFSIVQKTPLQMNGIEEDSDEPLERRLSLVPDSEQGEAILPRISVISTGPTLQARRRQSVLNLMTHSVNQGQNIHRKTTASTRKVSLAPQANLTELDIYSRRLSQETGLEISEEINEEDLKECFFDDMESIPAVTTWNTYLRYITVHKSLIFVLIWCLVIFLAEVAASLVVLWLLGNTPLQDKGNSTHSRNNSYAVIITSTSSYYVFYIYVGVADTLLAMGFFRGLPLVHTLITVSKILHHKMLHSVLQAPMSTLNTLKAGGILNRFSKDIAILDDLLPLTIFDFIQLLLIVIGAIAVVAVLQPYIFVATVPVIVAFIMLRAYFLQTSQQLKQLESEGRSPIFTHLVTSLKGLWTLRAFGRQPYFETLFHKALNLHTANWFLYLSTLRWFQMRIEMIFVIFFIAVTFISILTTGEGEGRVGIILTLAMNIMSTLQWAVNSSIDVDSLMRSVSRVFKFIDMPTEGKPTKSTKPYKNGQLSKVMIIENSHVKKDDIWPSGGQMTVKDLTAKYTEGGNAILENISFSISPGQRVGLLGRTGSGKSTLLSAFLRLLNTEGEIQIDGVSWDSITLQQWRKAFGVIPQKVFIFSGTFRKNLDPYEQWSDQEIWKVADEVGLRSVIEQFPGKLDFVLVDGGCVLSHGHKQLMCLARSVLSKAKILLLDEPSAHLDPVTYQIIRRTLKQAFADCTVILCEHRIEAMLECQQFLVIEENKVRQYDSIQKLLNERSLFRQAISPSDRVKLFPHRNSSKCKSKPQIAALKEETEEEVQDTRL

For `COc1cccc(C(c2c(O)c3ccccc3oc2=O)c2c(O)c3ccccc3oc2=O)c1O` [VI-116, 3,3′-((2-hydroxy-3-methoxyphenyl)methylene)bis(4-hydroxy-2H-chromen-2-one)], the pIC50 [1] was 4.91, the “effect on hypotonic perfusion activated ICl, swell” value [2] was “completely blocked” and the “effect on hERG K+ channel activity” value ([3]; 10 μM) was “minimal inhibitory effect”. The pIC50 ([3]; thallium flux, HEK293T cells expressing hERG, n = 6) was 4.05, the “effect on hypotonic perfusion activated ICl, swell” value [4] was “completely blocked” and the “effect on VRAC” value ([5]; 10 μM) was “completely inhibits”. For the same compound, the “effect on VRAC activity (VRAC-mediated I- quenching)” value ([5]; LN215 cells) was “fully inhibited”, the “decrease of potency on VRAC with 10% FBS compared to without FBS” value ([5]; LN215 cells, 10% FBS) was 5.4 fold and the pIC50 ([6]; VRAC IC50, YFP fluorescence quenching, hypotonic solution 5 min, n = 4) was 5.89 and 5.90. The pIC50 ([6]; VRAC IC50 in the presence of 10% FBS, medium containing 10% FBS, 5 min) was 5.16 and the “effect on cell viability” value [7] was “did not affect cell viability”.
